From article PMC9792171, “Design and synthesis of new thiazolidinone/uracil derivatives as antiproliferative agents targeting EGFR and/or BRAF^V600E” (Frontiers in Chemistry, 2022)

Columns and labels:
[1] = Cell viability assay (MTT), MCF-10A; type: cell-based; settings: human, MCF-10A mammary gland epithelial cells, MCF-10A cells, incubated 4 days
Description: To test the viability of new compounds, the human mammary gland epithelial (MCF-10A) cell line was used ([Youssif et al., 2019]; [Mahmoud et al., 2022]). MCF-10A cells were incubated with compounds 3a-f and 5a-l for 4 days before being tested for viability using the MTT assay.
MTT assay was carried out to study the effect of compounds on mammary epithelial cells (MCF-10A) (Youssif, B. G. M. et al., 2019; Mahmoud, M. A., et al., 2022). The medium in which cells were propagated contained Dulbecco's modified Eagle's medium (DMEM)/ Ham's F-12 medium (1:1) supplemented with epidermal growth factor (20 ng/mL), hydrocortisone (500 ng/mL), insulin (10 μg/mL), 2 mM glutamine and 10% foetal calf serum. After every 2-3 days, the cells were passaged using trypsin ethylenediamine tetra acetic acid (EDTA). The cells were seeded at a density of 10^4 cells mL^-1 in flat-bottomed culture plates containing 96 wells each. After 24 h, medium was removed from the plates and the compounds in (in 0.1% DMSO) were added (in 200 μL medium to yield a final concentration of 0.1% v/v) to the wells of plates. A single compound was designated with four wells followed by incubation of plates for 96h at 37°C. After incubation, medium was removed completely from the plates followed by addition of MTT (0.4 mg/mL in medium) to each well and subsequent incubation of plates for 3h. MTT (along with the medium) was removed and DMSO (150μL) was added to each well of the culture plates, followed by vortexing and subsequent measurement of absorbance (at 540 nm) using microplate reader. The data are shown as percentage inhibition of proliferation in comparison with controls containing 0.1% DMSO.

[2] = system: A-549 (epithelial cancer cell line); experiment: Antiproliferative MTT assay, A-549; type: cell-based; settings: Homo sapiens, A549; A-549, MTT; read-out: Antiproliferative activity IC50 ± SEM (nM) A-549
Description: (§1) Using the MTT assay ([Abdelrahman et al., 2017]; [El-Sherief et al., 2018]) and doxorubicin as the reference drug, 3a-f and 5a-l were tested for antiproliferative activity against four human cancer cell lines: Panc-1 (pancreas cancer cell line), MCF-7 (breast cancer cell line), HT-29 (colon cancer cell line), and A-549 (epithelial cancer cell line).
(§2) To explore the antiproliferative potential of compounds MTT assay was performed according to previously reported procedure (El-Sherief, H.A.M., et al., 2018; Abdelrahman, M. H., et al., 2017) using different cell lines to explore the antiproliferative potential of compounds propidium iodide fluorescence assay was performed using different cell lines. To calculate the total nuclear DNA, a fluorescent dye (propidium iodide, PI) is used which can attach to the DNA, thus offering a quick and precise technique. PI cannot pass through the cell membrane and its signal intensity can be considered as directly proportional to quantity of cellular DNA. Cells whose cell membranes are damaged or have changed permeability are counted as dead ones. The assay was performed by seeding the cells of different cell lines at a density of 3000-7500 cells/well (in 200µl medium) in culture plates followed by incubation for 24h at 37 °C in humidified 5% CO2/95% air atmospheric conditions. The medium was removed; the compounds were added to the plates at 10 µM concentrations (in 0.1% DMSO) in triplicates, followed by incubation for 48 h. DMSO (0.1%) was used as control. After incubation, medium was removed followed by the addition of PI (25 µl, 50µg/mL in water/medium) to each well of the plates. At -80 °C, the plates were allowed to freeze for 24 h, followed by thawing at 25 °C. A fluorometer (Polar-Star BMG Tech) was used to record the readings at excitation and emission wavelengths of 530 and 620 nm for each well. The percentage cytotoxicity of compounds was calculated using the following formula: […]

[3] = system: MCF-7 (breast cancer cell line); experiment: Antiproliferative MTT assay, MCF-7; type: cell-based; settings: Homo sapiens, MCF7; MCF-7, MTT; read-out: Antiproliferative activity IC50 ± SEM (nM) MCF-7
Description: as §1, §2

[4] = system: Panc-1 (pancreas cancer cell line); experiment: Antiproliferative MTT assay, Panc-1; type: cell-based; settings: Homo sapiens; Panc-1, MTT; read-out: Antiproliferative activity IC50 ± SEM (nM) Panc-1
Description: as §1, §2

[5] = system: HT-29 (colon cancer cell line); experiment: Antiproliferative MTT assay, HT-29; type: cell-based; settings: Homo sapiens; HT-29, MTT; read-out: Antiproliferative activity IC50 ± SEM (nM) HT-29
Description: as §1, §2

[6] = system: four human cancer cell lines (A-549, MCF-7, Panc-1, HT-29); experiment: Antiproliferative MTT assay, average of four cancer cell lines (GI50); type: cell-based; settings: for IC50: Homo sapiens, average of A-549, MCF-7, Panc-1, HT-29
Description: as §1, with “line). […]” for “line).”
as §2

[7] = biological target: T1, EGFR (Homo sapiens, UniProt P00533); parameters: method as in Aziz et al., 2021; settings: ref Aziz et al., 2021; cited from earlier work
T1 construct: EGFR cytoplasmic domain (EGFR-CD, amino acids 645–1186); His6 (N); made in house; host or cells: Sf-9 insect cells (baculovirus; pBlueBacHis2B and pFASTBacHTc)
T1 sequence (P00533 669-1210): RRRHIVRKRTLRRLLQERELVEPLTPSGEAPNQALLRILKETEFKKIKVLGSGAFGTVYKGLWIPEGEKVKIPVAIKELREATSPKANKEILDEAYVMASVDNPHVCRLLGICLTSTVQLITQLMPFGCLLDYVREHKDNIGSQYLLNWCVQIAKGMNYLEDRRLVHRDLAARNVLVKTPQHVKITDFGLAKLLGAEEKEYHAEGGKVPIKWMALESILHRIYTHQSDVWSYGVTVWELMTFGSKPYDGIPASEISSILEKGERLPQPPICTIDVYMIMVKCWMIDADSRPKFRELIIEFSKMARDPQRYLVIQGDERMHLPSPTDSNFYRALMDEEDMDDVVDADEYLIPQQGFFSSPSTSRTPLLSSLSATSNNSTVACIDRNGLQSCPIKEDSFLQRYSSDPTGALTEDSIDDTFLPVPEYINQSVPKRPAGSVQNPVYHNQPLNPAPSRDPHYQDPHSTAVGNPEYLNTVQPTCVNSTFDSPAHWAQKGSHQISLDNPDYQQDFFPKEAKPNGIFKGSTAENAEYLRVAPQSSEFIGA

[8] = system: lung cancer (A549) cell line; parameters: method as in Aziz et al., 2021; settings: ref Aziz et al., 2021; read-out: IC50 against lung cancer (A549) cell line; cited from earlier work
[9] = system: human lung carcinoma cell lines; parameters: method as in Xiong et al., 2008; settings: panel of human lung carcinoma cell lines; ref Xiong et al., 2008; read-out: IC50, inhibition of cell proliferation; cited from earlier work

| Compound | IC50 [2] [nM] | melting point | IC50 [3] [nM] | IC50 [4] [nM] | IC50 [5] [nM] | IC50 [6] [nM] | fold less potent than compound 5j (GI50) ([6]; ratio of GI50 values) | viability at 4 days, 50 µM [1] [%] | IC50 [7] [µM] | IC50 [8] [µM] | IC50 [9] [µM] |
| --- | --- | --- | --- | --- | --- | --- | --- | --- | --- | --- | --- |
| O=c1[nH]cc(NC(=S)Nc2ccccc2)c(=O)[nH]1 [Compound 3a, 1-(2,4-Dioxo-1,2,3,4-tetrahydropyrimidin-5-yl)-3-phenylthiourea] | 8900 ± 800 | 340 to 342 °C | 8500 ± 800 | 8800 ± 800 | 9100 ± 800 | 8800 |  | 86 |  |  |  |
| Cc1ccc(NC(=S)Nc2c[nH]c(=O)[nH]c2=O)cc1 [Compound 3b, 1-(2,4-Dioxo-1,2,3,4-tetrahydropyrimidin-5-yl)-3-(p-tolyl)thiourea] | 3700 ± 300 | 338 to 340 °C | 3600 ± 300 | 4100 ± 300 | 3900 ± 300 | 3800 |  | 87 |  |  |  |
| O=c1[nH]cc(NC(=S)NCc2ccccc2)c(=O)[nH]1 [Compound 3d, 1-Benzyl-3-(2,4-dioxo-1,2,3,4-tetrahydropyrimidin-5-yl)thiourea] | 4100 ± 400 | 350 to 352 °C (dec.) | 3900 ± 400 | 4300 ± 400 | 4300 ± 400 | 4150 |  | 91 |  |  |  |
| CNC(=S)Nc1c[nH]c(=O)[nH]c1=O [Compound 3e, 1-(2,4-Dioxo-1,2,3,4-tetrahydropyrimidin-5-yl)-3-methylthiourea] | 9700 ± 800 | 332 to 334 °C | 9600 ± 800 | 9800 ± 800 | 10800 ± 900 | 10000 |  | 89 |  |  |  |
| C=CCNC(=S)Nc1c[nH]c(=O)[nH]c1=O [Compound 3f, 1-Allyl-3-(2,4-dioxo-1,2,3,4-tetrahydropyrimidin-5-yl)thiourea] | 3800 ± 300 | 348 to 350 °C (dec.) | 3700 ± 300 | 3900 ± 300 | 4100 ± 300 | 3900 |  | 89 |  |  |  |
| CCOC(=O)/C=C1\S/C(=N\c2c[nH]c(=O)[nH]c2=O)N(c2ccccc2)C1=O [Compound 5a, (Z)-Ethyl-2-((Z)-2-((2,4-dioxo-1,2,3,4-tetrahydropyrimidin-5-yl)imino)-4-oxo-3-phenyl-thiazolidin-5-ylidene)acetate] | 3500 ± 300 | 320 to 322 °C | 3100 ± 300 | 3300 ± 300 | 3900 ± 300 | 3450 |  | 91 |  |  |  |
| CCOC(=O)/C=C1\S/C(=N\c2c[nH]c(=O)[nH]c2=O)N(Cc2ccccc2)C1=O [Compound 5d, (Z)-Ethyl-2-((Z)-3-benzyl-2-((2,4-dioxo-1,2,3,4-tetrahydropyrimidin-5-yl)imino)-4-oxo-thiazolidin-5-ylidene)acetate] | 4900 ± 500 |  | 4700 ± 400 | 5500 ± 500 | 5500 ± 500 | 5150 | approximately 5 fold | 86 |  |  |  |
| O=C1N=C(Nn2c(-c3ccccc3)nc3ccccc3c2=O)S/C1=C/c1ccccc1 [Compound III] |  |  |  |  |  |  |  |  | 0.065 | 0.72 |  |
| COC(=O)c1ccccc1NC(=S)N(CCN1CCCCC1)Cc1cc2cc(C)ccc2[nH]c1=O [DC27] |  |  |  |  |  |  |  |  |  |  | 2.5 to 12.9 |

Second part, led by results:

| IC50 [2] [nM] | melting point | IC50 [3] [nM] | IC50 [4] [nM] | IC50 [5] [nM] | IC50 [6] [nM] | fold less potent than compound 5j (GI50) ([6]; ratio of GI50 values) | Compound | viability at 4 days, 50 µM [1] [%] | IC50 [7] [µM] | IC50 [8] [µM] | IC50 [9] [µM] |
| --- | --- | --- | --- | --- | --- | --- | --- | --- | --- | --- | --- |
| 7200 ± 600 | 302 to 304 °C | 6700 ± 700 | 7300 ± 700 | 7200 ± 700 | 7100 |  | CCOC(=O)/C=C1\S/C(=N\c2c[nH]c(=O)[nH]c2=O)N(C)C1=O [Compound 5e, (Z)-Ethyl-2-((Z)-2-((2,4-dioxo-1,2,3,4-tetrahydropyrimidin-5-yl)imino)-3-methyl-4-oxo-thiazolidin-5-ylidene)acetate] | 86 |  |  |  |
| 8200 ± 700 | 310 to 312 °C | 7900 ± 700 | 8800 ± 700 | 8900 ± 700 | 8500 |  | C=CCN1C(=O)/C(=C/C(=O)OCC)S/C1=N\c1c[nH]c(=O)[nH]c1=O [Compound 5f, (Z)-Ethyl-2-((Z)-3-allyl-2-((2,4-dioxo-1,2,3,4-tetrahydropyrimidin-5-yl)imino)-4-oxo-thiazolidin-5-ylidene)acetate] | 89 |  |  |  |
| 2700 ± 200 | 302 to 304 °C | 2200 ± 200 | 2900 ± 200 | 2200 ± 200 | 2500 |  | COC(=O)/C=C1\S/C(=N\c2c[nH]c(=O)[nH]c2=O)N(c2ccccc2)C1=O [Compound 5g, (Z)-Methyl-2-((Z)-2-((2,4-dioxo-1,2,3,4-tetrahydropyrimidin-5-yl)imino)-4-oxo-3-phenyl-thiazolidin-5-ylidene)acetate] | 87 |  |  |  |
| 5700 ± 600 | 300 to 302 °C | 5100 ± 500 | 5900 ± 500 | 6200 ± 600 | 5700 |  | COC(=O)/C=C1\S/C(=N\c2c[nH]c(=O)[nH]c2=O)N(C)C1=O [Compound 5k, (Z)-Methyl-2-((Z)-2-((2,4-dioxo-1,2,3,4-tetrahydropyrimidin-5-yl)imino)-3-methyl-4-oxothiazolidin-5-ylidene)acetate] | 89 |  |  |  |
| 6000 ± 600 | 314 to 316 °C | 6500 ± 600 | 6400 ± 600 | 6600 ± 600 | 6400 |  | C=CCN1C(=O)/C(=C/C(=O)OC)S/C1=N\c1c[nH]c(=O)[nH]c1=O [Compound 5l, (Z)-Methyl-2-((Z)-3-allyl-2-((2,4-dioxo-1,2,3,4-tetrahydropyrimidin-5-yl)imino)-4-oxothiazolidin-5-ylidene)acetate] | 86 |  |  |  |
| 1200 ± 100 |  | 900 ± 100 | 1400 ± 100 | 1000 ± 100 | 1100 |  | COc1cccc2c1C(=O)c1c(O)c3c(c(O)c1C2=O)C[C@@](O)(C(=O)CO)C[C@@H]3O[C@H]1C[C@H](N)[C@H](O)[C@H](C)O1 [Doxorubicin, reference compound] |  |  |  |  |
